Data on 79 molecules can be found in the METLIN SMRT retention time set (Domingo-Almenara et al. 2019).

This series can be described thus: gradient 5% acetonitrile 3 min, to 50% in 2 min, to 85% in 15 min, held 3 min, 100 µL/min. To be noted: column: Zorbax Extend-C18 2.1 x 50 mm; eluents: water / acetonitrile, 0.1% formic acid. In outline:
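In both positive and negative ionization mode, a quadrupole time-of-flight mass spectrometer coupled to HPLC analyzed pure standards run in mixtures of ~100 molecules. The Zorbax Extend-C18 column (2.1 × 50 mm, 1.8 μm) was operated at 100 μL/min with water and acetonitrile, each containing 0.1% formic acid. The dead volume was 40 μL and the dwell volume 900 μL. Retention time came from adduct peaks that were computationally picked and individually inspected by hand.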
Take `CCCc1cc(N2CCN(c3ccccn3)CC2)n2ncc(-c3ccccc3)c2n1`: the RP-LC retention time was 886 s.
Regarding `C/C=C/C(=O)N1C(=O)OC[C@@H]1Cc1ccccc1`, the RP-LC retention time stood at 891 s.
Then `COC(=O)CCSCC(=O)Nc1ccc(C)cc1C`, with 742 s.
`c1ccc(OCc2nc(-c3ccc4c(c3)ncn4CCN3CCCCC3)no2)cc1`: the RP-LC retention time is 652 s.
The molecule `CCCNC(=O)Cn1c(CC)nc2c(c1=O)CN(Cc1ccccc1)CC2` showed an RP-LC retention time of 589 s.
For `O=C(Nc1ccc2c(c1)OCCO2)N1CCCC1c1nc(CCOCC2CC2)no1` (centres undefined), the RP-LC retention time came to 788 s.
In the case of `CCNC(=O)C1CCCN(c2nc3ncn(CC(=O)Nc4ccc(F)cc4Cl)c(=O)c3s2)C1` (centres undefined), the RP-LC retention time worked out at 681 s.
Take `O=C(Nc1ccc(F)cc1F)c1c(O)c2cccnc2n(-c2ccc(F)cc2)c1=O`: the RP-LC retention time stood at 957 s.
Then `CCOc1cccc(-c2noc(Cn3ccn4nc(-c5ccc(C)c(C)c5)cc4c3=O)n2)c1`, with 1220 s; and `CC(C)NC(=O)N1CCCN(Cc2cccs2)CC1`, with 564 s.
In the case of `Cc1ccc(C)c(CNS(=O)(=O)c2cc(-c3csc(C)n3)sc2C)c1`, the RP-LC retention time amounted to 1100 s.
In turn, `O=C(CCC1CCCN(S(=O)(=O)c2cccc(F)c2)C1)NC1CCCCC1` (centres undefined) had an RP-LC retention time of 936 s.
Then `CCCNC(=O)C1CCCN(c2ccc(SCC(=O)Nc3ccc(S(C)(=O)=O)cc3)nn2)C1` (centres undefined), with 614 s.
`CCn1c(=O)c(C)nc2cc(-c3noc(C4CC(=O)N(c5ccc(C)c(C)c5)C4)n3)ccc21` (centres undefined): the RP-LC retention time was 954 s.
Molecule `O=C(Cn1nc2n(c1=O)CCCCC2)NCc1ccc(F)cc1` showed an RP-LC retention time of 671 s.
The same measure for `CCn1c(=O)c(N2CCN(C(=O)Nc3cc(C)ccc3C)CC2)nc2ccccc21`: 984 s; for `Cc1c(-c2ccnc(N3CCN(Cc4ccccc4)CC3)n2)cnc2ncnn12`: 588 s; for `O=C(NCCc1cccs1)c1cccc(N2CCNC(c3ccccc3)C2)n1` (centres undefined): 656 s.
The same measure for `Cc1cc(NC(=O)c2cn(C)nc2S(=O)(=O)N2CCSCC2)ccc1F`: 960 s; for `Cc1c(CC(=O)NCC(C)C)c(=O)n2nc(-c3ccccc3)nc2n1C`: 717 s; for `Cc1ccc(S(=O)(=O)Cc2cccc(-c3nc(-c4cccc(-c5ccnn5C)c4)no3)c2)cc1`: 1140 s.
The same measure for `COc1ccc(F)cc1S(=O)(=O)N1C[C@@H]2C[C@H](NC(=O)c3ccccc3)[C@H]1C2`: 661 s.
With `O=c1c2ccccc2c(-c2nc(-c3ccncc3)no2)cn1-c1ccc(Cl)cc1`, the RP-LC retention time came out at 1140 s.
Consider `COc1cc(CN2CCC3(CCC(CN4CCOCC4)O3)CC2)ccc1OCC(C)C` (centres undefined), for which the RP-LC retention time was 598 s.
`COc1ccc(-c2nnc(-c3cccnc3NCc3cc(OC)cc(OC)c3)o2)cc1` showed an RP-LC retention time of 1160 s.
Consider `CCC(C)NC(=O)c1cc(-c2cccs2)nc2onc(C)c12` (centres undefined), for which the RP-LC retention time was determined as 929 s.
`COc1cc(NC(=O)c2csc(-c3cn(C)c4ncccc34)n2)cc(OC)c1` registered an RP-LC retention time of 1010 s.
`Cn1ncc(Cl)c1C(=O)N1CCCC1c1ccc(F)cc1` (centres undefined): the RP-LC retention time worked out at 825 s.
The molecule `O=C(NCc1csc(C2CCN(C(=O)c3ccc(F)cc3F)CC2)n1)C1CCC1` returned an RP-LC retention time of 729 s.
The molecule `Nc1nc(N2CCCC2)ncc1C(=O)NCc1ccccc1` displayed an RP-LC retention time of 615 s.
For `CCC(=O)N1CCc2c(C(=O)NC3CCCC3)cccc21`, the RP-LC retention time worked out at 765 s.
`COc1ccc(OC)c(CNC(=O)Cc2nnc(-c3cnccn3)o2)c1` showed an RP-LC retention time of 616 s.
In turn, `Cc1noc(C)c1CN1CCC(NC(=O)Cc2ccc(F)cc2)C1` (centres undefined) showed an RP-LC retention time of 597 s.
In turn, `CC1CCC(NC(=O)C(Cc2c[nH]c3ccccc23)NC(=O)C2CCC(C)CC2)CC1` (centres undefined) displayed an RP-LC retention time of 1100 s.
`CCN1C(=O)COc2ccc(-c3csc(NC(=O)c4ccc(F)cc4)n3)cc21`: the RP-LC retention time was 989 s.
As to `Cc1ccc(C)c(NC(=O)C2CCN(S(=O)(=O)c3cc(-c4noc(C5CC5)n4)cs3)CC2)c1`, the RP-LC retention time was 1020 s.
`CC(C)NC(=O)c1ccc(CN2CCN(Cc3ccc(F)cc3)C(=O)C2=O)cc1` yielded an RP-LC retention time of 668 s.
On to `COc1ccc(CNC(=O)C2CCN(c3cnc4nccnc4c3)CC2)cc1OC`, for which the RP-LC retention time was determined as 633 s.
As for `Cc1nc(-c2ccc3c(c2)CCN3C(=O)c2cccs2)cs1`, the RP-LC retention time came out at 953 s.
`CCCCC(=O)N1CCCN(C2=NS(=O)(=O)C(c3ccc(C)c(C)c3)=C2C)CC1` had an RP-LC retention time of 886 s.
For the molecule `COc1ccc(OC)c(C(O)Cn2ccn3nc(-c4ccc(C(C)C)cc4)cc3c2=O)c1` (centres undefined), the RP-LC retention time was determined as 1090 s.
Consider `CC(C)CCNC(=O)Cn1nc2c3cc(-c4ccc(F)cc4)nn3ccn2c1=O`, for which the RP-LC retention time is 876 s.
As to `CCn1cnc2ccc(-c3noc(-c4ccccc4OC)n3)cc21`, the RP-LC retention time turned out to be 742 s.
The molecule `O=C(Cc1ccsc1)N1C[C@H]2C[C@H](C1)[C@H]1CCCC(=O)N1C2` came in with an RP-LC retention time of 631 s.
Molecule `COCC(C)(O)CNC(=O)C(=O)NCc1ccc(C)cc1` (centres undefined) yielded an RP-LC retention time of 674 s.
For the molecule `Cc1nc2cc(N3CCCC(C(=O)NCc4cccs4)C3)cnc2nc1C` (centres undefined), the RP-LC retention time was found to be 687 s.
The molecule `CCc1noc(NC(C)=O)c1-c1ccc(OC)c(S(=O)(=O)NCc2ccc(OC)cc2)c1` came in with an RP-LC retention time of 758 s.
For `COc1ccccc1-c1noc(Cn2c(=O)n(Cc3ccc4c(c3)OCO4)c(=O)c3sccc32)n1`, the RP-LC retention time stood at 956 s.
As for `CCc1ccccc1NC(=O)Cn1ncc2c(c1=O)N(C1CC1)C(=O)CS2`, the RP-LC retention time stood at 718 s.
For the molecule `CCS(=O)(=O)N1CCC2(CC1)NC(=O)N(Cc1ccc(Cl)cc1)C2=O`, the RP-LC retention time turned out to be 767 s.
`CCOC(=O)C(C(=O)Nc1ccccn1)C1CCCCC1` (centres undefined): the RP-LC retention time was found to be 908 s.
`Cc1cc(C(=O)Nc2ccc(-c3nc4ccccc4o3)cc2)c(C)o1`: the RP-LC retention time amounted to 1020 s.
In the case of `Cc1cc(C)cc(Oc2nccn3c(=O)n(CC(=O)NCc4ccccc4)nc23)c1`, the RP-LC retention time was 860 s.
As to `CN(CC1CCOCC1)C(=O)c1ccc(Br)cc1`, the RP-LC retention time was found to be 761 s.
`Cc1ccc(-c2cn3c(CC(=O)Nc4ccc(Cl)cc4)csc3n2)cc1C` had an RP-LC retention time of 940 s.
In turn, `CN1C(=O)CC2(C)C1=CCc1scnc12` (centres undefined) gave an RP-LC retention time of 636 s.
`CC(C)NC(=O)c1ccc(OCC2CCCN(C(=O)c3cccc(F)c3)C2)cc1` (centres undefined) returned an RP-LC retention time of 846 s.
`Cc1cccc(-c2ncccc2CNS(=O)(=O)c2ccc(Cl)s2)c1` displayed an RP-LC retention time of 785 s.
Then `CCc1nnsc1C(=O)Nc1ccc(S(=O)(=O)Nc2onc(C)c2C)cc1`, with 759 s; and `O=C(N1CCC(NS(=O)(=O)c2cccc(F)c2)CC1)N1C[C@H]2C[C@H](C1)[C@H]1CCCC(=O)N1C2`, with 704 s.
Then `O=C(N[C@H](Cc1ccccc1)C(=O)NCc1cscn1)c1cccc(F)c1`, with 762 s.
The molecule `CCOC(=O)c1c(C)c(CCC(=O)N2CCN(c3ccccn3)CC2)n(C)c1C` displayed an RP-LC retention time of 616 s.
The molecule `COc1ccc(-c2noc(-c3cccn(CC(=O)NC(C)C)c3=O)n2)cc1OC` gave an RP-LC retention time of 688 s.
On to `CC(C)n1cnc(S(=O)(=O)N2CCC(C(=O)N3CCN(c4ccc(Cl)cc4)CC3)CC2)c1`, for which the RP-LC retention time worked out at 865 s.
`CC(C)n1nnc2ccc(-c3noc(-c4ccccc4)n3)cc21`: the RP-LC retention time amounted to 1130 s.
Then `CCN1CCCCc2cc(C(=O)NCCC3CCN(C(C)C)CC3)sc21`, with 680 s.
`COc1ccccc1CNC(=O)CCC1CCN(c2cc(NC3CC3)ncn2)CC1`: the RP-LC retention time was 669 s.
The molecule `COCCN1CCn2cc(S(=O)(=O)Nc3ccc(Cl)cc3F)cc2C1=O` gave an RP-LC retention time of 734 s.
Then `O=C(Nc1ccc2c(c1)OCO2)C1CCCN(c2ncnc3c2nc2n3CCCCC2)C1` (centres undefined), with 759 s; and `CN1CCN(C(CNC(=O)c2ccc3c(c2)OCO3)c2ccc3c(c2)OCO3)CC1` (centres undefined), with 614 s.
As to `Cc1nc(-c2ccc(-c3noc(C(C)NC(=O)c4ccccc4)n3)cc2)cs1` (centres undefined), the RP-LC retention time came to 963 s.
`CSc1ncccc1C(=O)Nc1ccc(CC(=O)NC(C)(C)CO)cc1` returned an RP-LC retention time of 633 s.
On to `CCCNC(=O)C1CCCN(c2nc3ncn(CC(=O)N4CCc5ccccc5C4)c(=O)c3s2)C1` (centres undefined), for which the RP-LC retention time amounted to 705 s.
On to `CCOC(=O)c1c(C)[nH]c(CCC(=O)NCCc2c[nH]c3ccccc23)c1C`, for which the RP-LC retention time stood at 715 s.
`CC1=C(c2ccc(F)cc2)S(=O)(=O)N=C1N1CCC(NC(=O)C2CCOC2)CC1` (centres undefined) yielded an RP-LC retention time of 664 s.
In the case of `COCCNC(=O)NC1CCN(C2=NS(=O)(=O)C(c3cccc(Cl)c3)=C2C)CC1`, the RP-LC retention time was 718 s.
With `Cc1ccc2c(c1)C(c1ccccc1)N(C(=O)c1ccc([N+](=O)[O-])cc1)CC(=O)N2` (centres undefined), the RP-LC retention time turned out to be 834 s.
`O=C(C1CCN(c2nc3ccc(-c4ccsc4)nc3s2)CC1)N1CCOCC1` gave an RP-LC retention time of 826 s.
On to `COc1ccc(C(O)CN2CCN(c3ccccc3)CC2)cc1` (centres undefined), for which the RP-LC retention time stood at 630 s.
